# Measurements published in US6803371B2, “Purine inhibitors of protein kinases, G proteins and polymerases” (The Regents of the University of California, priority 1997, dated 2004).
# pIC50: −log10 of the molar value.
# Tests used:
# [1] = molecular target: cdc2/cyclinB; test: cdc2/cyclinB kinase inhibition; type: biochemical
# [2] = molecular target: erk1 (Homo sapiens, UniProt P27361); test: erk1 kinase inhibition; type: biochemical; settings: read-out: IC50 (additional kinases) erk1
# erk1, sequence (P27361 whole entry, species assumed): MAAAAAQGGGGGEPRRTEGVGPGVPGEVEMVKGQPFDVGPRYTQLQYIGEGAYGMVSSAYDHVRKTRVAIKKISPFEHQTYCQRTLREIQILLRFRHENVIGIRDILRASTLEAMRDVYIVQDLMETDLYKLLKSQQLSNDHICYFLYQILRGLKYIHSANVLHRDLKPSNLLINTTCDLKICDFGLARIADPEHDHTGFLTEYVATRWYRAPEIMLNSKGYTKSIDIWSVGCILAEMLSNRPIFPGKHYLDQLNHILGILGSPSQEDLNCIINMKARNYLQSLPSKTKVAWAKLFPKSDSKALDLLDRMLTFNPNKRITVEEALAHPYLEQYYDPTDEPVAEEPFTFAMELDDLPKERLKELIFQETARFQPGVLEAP
pIC50 [1],pIC50 [2],SMILES
5.00,,CC(C)n1cnc2c(Nc3ccccc3C(F)(F)F)nc(NCCO)nc21 [NG-53]
7.00,< 5.00,COc1ccc(CNc2nc(N[C@@H](CO)CC(C)C)nc3c2ncn3C(C)C)cc1 [NG-36]
5.37,,CC(C)n1cnc2c(Nc3ccccc3Cl)nc(NCCO)nc21 [NG-43]
,< 5.00,CC[C@H](CO)Nc1nc(NCc2ccc(OC)cc2)c2ncn(C(C)C)c2n1 [NG-33]
6.62,4.30,COc1ccc(CNc2nc(N(CC(C)O)CC(C)O)nc3c2ncn3C(C)C)cc1 (stereo not shown) [NG-16]
~7.00,,CC(C)[C@H](CO)Nc1nc(Nc2ccc(O)c(C(=O)O)c2)c2ncn(C(C)C)c2n1 [NG-94]
6.37,,CC(C)n1cnc2c(Nc3ccc4ccccc4c3)nc(NCCO)nc21 [NG-47]
6.57,,CC(C)n1cnc2c(Nc3cccc(Br)c3)nc(NCCO)nc21 [NG-45]
5.55,,COc1ccc(CNc2nc(N(CCO)Cc3ccccc3)nc3c2ncn3C(C)C)cc1 [NG-49]
5.05,,COc1ccccc1Nc1nc(NCCO)nc2c1ncn2C(C)C [NG-46]
6.30,,CCC(C)[C@@H](CO)Nc1nc(Nc2cccc(Cl)c2)c2ncn(C(C)C)c2n1 (stereo partly shown) [NG-62]
~7.52,,CC(C)[C@H](CO)Nc1nc(Nc2ccc(Cl)c(C(=O)O)c2)c2ncn(C(C)C)c2n1 [NG-96]
6.40,,CC(C)C(CO)Nc1nc(Nc2cc(Cl)cc(Cl)c2)c2ncn(C(C)C)c2n1 (stereo not shown) [NG-57]
6.10,,CC(C)n1cnc2c(Nc3cccc(Cl)c3)nc(N[C@H](CO)c3ccccc3)nc21 [NG-59]
7.52,,CC(C)[C@H](CO)Nc1nc(Nc2ccc(Cl)c(N)c2)c2ncn(C(C)C)c2n1 [NG-98]
5.64,,CC(C)n1cnc2c(Nc3cccc(Cl)c3)nc(N[C@H](CO)C(C)(C)C)nc21 [NG-61]
5.55,,COc1ccc(CNc2nc(NCC(O)c3ccccc3)nc3c2ncn3C(C)C)cc1 (stereo not shown) [NG-50]
6.66,,CC(C)n1cnc2c(Nc3cccc(Cl)c3)nc(NCCO)nc21 [NG-52]
5.37,,CC(C)n1cnc2c(Nc3ccccc3)nc(NCCO)nc21 [NG-42]
6.38,,CC(C)n1cnc2c(Nc3cccc(C(F)(F)F)c3)nc(NCCO)nc21 [NG-51]
6.40,,CC(C)n1cnc2c(Nc3cccc(F)c3)nc(NCCO)nc21 [NG-65]
5.57,,CC(C)n1cnc2c(Nc3ccc(Cl)cc3Cl)nc(NCCO)nc21 [NG-54]

SMILES,pIC50 [1],pIC50 [2]
CC(C)[C@H](CO)Nc1nc(Nc2cc(N)cc(Cl)c2)c2ncn(C(C)C)c2n1 [NG-97],7.52,
